Assays:
[1] = Compressibility test on tablets; assay type: physicochemical
Experimental: A set of tablets was prepared using different compression forces. A compressibility test was carried out on these.

[2] = Stability test (exposure to humidity, XRPD); assay type: physicochemical; conditions: 25° C.
Experimental: Stability tests were carried out on Aliskiren hemifumarate, amorphous solid of this invention and Aliskiren hemifumarate, amorphous solid obtained as described in WO2008/061622, maintaining the samples at 25° C., 75% RH. […] The same samples were exposed to 25° C., 60% RH.

Rupture Strength ([1]; tablet #1, compression strength 22.27 kN) [N]	Rupture Strength ([1]; tablet #2, compression strength 23.82 kN) [N]	Rupture Strength ([1]; tablet #3, compression strength 24.15 kN) [N]	Rupture Strength ([1]; tablet #4, compression strength 6.80 kN) [N]	Rupture Strength ([1]; tablet #5, compression strength 7.95 kN) [N]	Rupture Strength ([1]; tablet #6, compression strength 10.10 kN) [N]	Rupture Strength ([1]; tablet #7, compression strength 11.55 kN) [N]	Rupture Strength ([1]; tablet #8, compression strength 7.88 kN) [N]	Rupture Strength ([1]; tablet #9, compression strength 10.15 kN) [N]	Rupture Strength ([1]; tablet #10, compression strength 13.18 kN) [N]	Rupture Strength ([1]; tablet #11, compression strength 15.60 kN) [N]	Rupture Strength ([1]; tablet #12, compression strength 14.12 kN) [N]	Rupture strength compared with tablets of amorphous solid obtained as described in WO2008/061622 ([1]; comparison of Tables 7 and 8)	Rupture Strength ([1]; tablet #1, compression strength 11.83 kN) [N]	Rupture Strength ([1]; tablet #2, compression strength 5.83 kN) [N]	Rupture Strength ([1]; tablet #3, compression strength 16.45 kN) [N]	Rupture Strength ([1]; tablet #4, compression strength 10.85 kN) [N]	Rupture Strength ([1]; tablet #5, compression strength 19.43 kN) [N]	Typical nature of the diffractogram (XRPD pattern) after exposure ([2]; 60% RH, 5 days, curve A basal vs curve B, FIG. 15)	SMILES	Change of physical form of the sample ([2]; 75% RH, after 2 hours)
1.5	2	1.5	2	2	1.5	2.2	2.5	2	2	2	2	–	–	–	–	–	–	–	COCCCOc1cc(C[C@@H](C[C@H](N)[C@@H](O)C[C@H](C(=O)NCC(C)(C)C(N)=O)C(C)C)C(C)C)ccc1OC	–
–	–	–	–	–	–	–	–	–	–	–	–	higher	4.5	4	2	4	3.5	lost	COCCCOc1cc(C[C@@H](C[C@H](N)[C@@H](O)C[C@H](C(=O)NCC(C)(C)C(N)=O)C(C)C)C(C)C)ccc1OC [(2S,4S,5S,7S)-5-amino-N-(3-amino-2,2-dimethyl-3-oxypropyl)-4-hydroxy-7-[[4-methoxy-3-(3-methoxypropoxy)pheny]methyl]-8-methyl-2-propan-2 ilnonanamide]	changed from solid to viscous liquid form

Reference: US20140350300A1, “ALISKIREN HEMIFUMARATE, CRYSTAL FORM AND AMORPHOUS SOLID” (DJADA PHARMACEUTICAL SA, priority 2011, published 2014)
